In US20050227915A1, “Methods and reagents for treating neurodegenerative diseases and motor deficit disorders” (priority 2001, published 2005):
Entries after “also recorded” stand apart in the source; their conditions may differ. Where two headings read alike, the source gives them in different places.

Columns and labels:
[1] = system: deacetylase; conditions: cited from earlier work
[2] = system: PC12 cells induced to express Httex1p (103QP); test: Histone acetylation analysis in PC12 cell extract (Western blot); format: cell-based; conditions: PC12 F103QP-EGFP cells, uninduced and induced, 5 mM sodium butyrate for last 24 h
Protocol: Histone acetylation analysis in PC12 cell extract. PC12 cells, stably transfected with ecdysone-inducible (Invitrogen) F103QP-EGFP were plated, induced with 5 μM ponasterone (Invitrogen) for 48 h, and treated for the last 24 h with 5 mM sodium butyrate. Controls included uninduced and/or non-butyrate-treated cells. Cells were lysed in 1×HAT buffer with 50 mM NaCl, 0.3% NP-40, and a protease-inhibitor cocktail on ice for 10 min. A 50 μg aliquot of whole cell extract was analyzed by Western blot.
Separate, independently-derived, ecdysone-inducible PC12 cell lines, denoted PC12/pBWN:Htt ex1Q103-EGFP cells and PC12/pWN:Httex1Q25-EGFP (E. S. Schweitzer, UCLA), were also analyzed. These clonal cells contain a modified exon 1 of Htt inserted into an expression vector containing the Bombyx ecdysone-regulated element (described in Suhr, S. T., et al. (1998) Proc. Natl. Acad. Sci. U.S.A. 95, 7999-8004).
Twenty-five micrograms of whole cell extracts from PC12 cells stably transfected with plasmids encoding inducible 25QP-EGFP and 103QP-EGFP was analyzed for […]. Control cells (uninduced) and cells induced with 1 μM tebufenizide for 12 h were analyzed by Western blots. Anti-acetylated histone H4, anti-histone H3 and anti-acetylated histone H3 (all from Upstate Biotechnology) were used to determine levels of acetylated histones H3 and H4 relative to levels of total H3.

[3] = system: flies expressing Httex1p Q93; test: Pseudopupil analysis of rhabdomeres in flies expressing Httex1p Q93; format: in vivo, Drosophila
Excerpt: (§1) Drosophila stocks and crosses. Expression of polyglutamine-containing peptides is driven by the bipartite expression system activator sequence (UAS)-GAL4 in transgenic flies (Marsh, J. L. et al. (2000) Hum. Mol. Gen. 9, 13-25).
Injection of plasmids expressing Httex1p with 20 or 93 glutamines produced nine and ten lines, respectively. Two lines with the most severe neuronal phenotype (P463 and P465) were chosen for the experiments described herein. Polyglutamine stocks are w;P(w^+mC=UAS-Q93httexon1)^4F1 and w;P(w^+mC=UAS-Q48+myc/flag)^20. Constructs under the control of a yeast UAS were crossed to flies expressing the yeast GAL4 transcriptional activator (Brand, A. and Perrimon, N., supra) driven by the neuron-specific promoter elav (chromosome 2 driver for Q48 lines, Luo, L. et al. (1994) Genes Dev. 8, 1787-1802, and X-chromosome driver for Htt exon 1 lines, Lin, D. M. & Goodman, C. S. (1994) Neuron 13, 507-523) that is expressed in all neurons from embryogenesis onwards: w;P(w^+mC;w+; elav-GAL4)/CyO, P(w^+mC=Act-GFP)JMR1CyO actin-GFP or w;P(w^+mW.hs=GawB)elavC155. […]
Pseudopupil analysis and transgene expression. […] Eyes were analyzed with a Nikon EFD-3/Optiphot-2 scope using a 50× objective, and photographed with a Spot camera. At least 200 ommatidia were scored for each condition. […]

[4] = system: flies expressing Q48; test: Pseudopupil analysis of rhabdomeres in flies expressing Q48 polyglutamine peptides; format: in vivo, Drosophila; conditions: for progressive photoreceptor neuron degeneration: feeding initiated only in adult flies; for distribution of rhabdomeres by day 6: Q48 flies fed inhibitor, data not shown; for neurodegenerative effect of Q48 (photographs of ommatidia): in vivo
Excerpt: as §1
Injection of plasmids expressing Httex1p with 20 or 93 glutamines produced nine and ten lines, respectively. Two lines with the most severe neuronal phenotype (P463 and P465) were chosen for the experiments described herein. Polyglutamine stocks are w;P(w^+mC=UAS-Q93httexon1)^4F1 and w;P(w^+mC=UAS-Q48+myc/flag)^20. Constructs under the control of a yeast UAS were crossed to flies expressing the yeast GAL4 transcriptional activator (Brand, A. and Perrimon, N., supra) driven by the neuron-specific promoter elav (chromosome 2 driver for Q48 lines, Luo, L. et al. (1994) Genes Dev. 8, 1787-1802, and X-chromosome driver for Htt exon 1 lines, Lin, D. M. & Goodman, C. S. (1994) Neuron 13, 507-523) that is expressed in all neurons from embryogenesis onwards: w;P(w^+mC;w+; elav-GAL4)/CyO, P(w^+mC=Act-GFP)JMR1CyO actin-GFP or w;P(w^+mW.hs=GawB)elavC155.
For testing the effect of Sin3A on polyglutamine phenotypes, we crossed w;P(w^+mC=UAS-Q93httexon1)^4F1 virgins to w;P{w^+mCwPw;elav-GAL4)/Y;Sin3A^08269/Bc Gla males.
Pseudopupil analysis and transgene expression. Pseudopupil analysis allows visualization of the arrangement of rhabdomeres in the ommatidia of the compound eye (Franceschini, N. (1972) in Information processing in the visual systems of arthropods, ed. Wehner, R., pp 75-82). Adult flies were decapitated, one eye was dipped in a drop of nail polish and the head was mounted on a microscope slide. Eyes were analyzed with a Nikon EFD-3/Optiphot-2 scope using a 50× objective, and photographed with a Spot camera. At least 200 ommatidia were scored for each condition. For Western analysis of transgene expression, 20 larvae from each sample were ground in a buffer containing 0.1 M phosphate at pH7.1, 0.3 M sucrose, 0.02 mM phenylthiourea, protease cocktail and 0.1 mM PMSF, and 200 μg of total lysate were loaded per lane.

[5] = Protocol: Drug Formulation. […] This solution was administered to mice in place of drinking water and replaced weekly.
Animals. Affected mice were hemizygous R6/2 females (Mangiarini, L., et al. (1996) Cell 87: 493-506) (available from the Induced Mutant Resource, Jackson Laboratory, Bar Harbor Me., code B6CBA-TgN (HDexon1)62), bred and reared in our colony by backcrossing R6/2 males to C57BL/6×CBA F1 females. Transgenic animals were identified prior to weaning by PCR of tail-tip DNA and CAG repeat size was determined (Mangiarini, L., et al. (1997) Nat Genet 15: 197-200). Control mice were wild-type female littermates. Mice were weaned into their treatment groups at 4 weeks of age. […] From age 12 weeks, all animals were additionally given mash consisting of powdered chow mixed with the drug solution as given in the drinking bottle. The mice were subject to a 12 hour light (08:00-20:00), 12 hour dark (20:00-08:00) cycle. Living conditions and baseline characteristics of study groupings were standardized as previously described (Hockly et al. submitted).
Assuming that a 20 g mouse drinks 3 ml/day, this corresponds to a dose of 1.33 g/l.
Drug administration commenced at 30 days of age after an initial testing week, which was used to assort the mice into well-matched treatment groups (FIG. 28a).

[6] = system: R6/2 mice; test: Rotarod analysis of motor impairment; format: in vivo
Protocol: (§2) Animals. […] Control mice were wild-type female littermates.
(§3) Behavioral analysis: Rotarod impairment was assessed on a Ugo Basile 7650 accelerating Rotarod (Linton Instrumentation, UK), modified as previously described (Hockly et al, submitted). Animals (R6/2: n=13, wild-type: n=12 per treatment group) were tested at 4 weeks of age to establish their baseline performance and then at 8, 10 and 12 weeks of age. Grip strength was measured once per fortnight (Hockly et al. submitted) and animals weighed weekly to the nearest 0.1 g. Statistical analysis of grip strength used ANOVA on the mean grip strength. Rotarod data were analyzed at each time point using repeated measures in a linear mixed effects model (in S-plus).

[7] = Body weight in SAHA preclinical trial; format: in vivo, mice
Protocol: as §2, §3

[8] = system: huntingtin aggregate load; test: Organotypic hippocampal slice culture assay of polyQ aggregation; format: cell-based, R6/2 mice
Protocol: The present inventors established that HOP-[…]-CD has no effect on polyQ aggregation over a 5-log concentration range (data not shown) and therefore the HOP-[…]-CD concentration required to complex 250 μM was used as the vehicle. The medium was changed twice weekly and slices were fixed at weekly intervals from 2 weeks in culture. The huntingtin aggregate load was assessed by quantitative indirect immunofluorescence and results were analyzed using the general linear model ANOVA with false discovery rate correction (Hochberg, Y. & Benjamini, Y. (1990) Stat Med 9: 811-8).
We have developed this technique to bridge the gap between wholly in vitro aggregation assays and preclinical trials and allow us to quantify aggregate formation in a system in which aggregates form at the same rate and in the same sequence as they do in vivo.

Molecule: Nc1ccccc1NC(=O)c1ccc(CNC(=O)OCc2cccnc2)cc1 [benzamide (MS-27-275), MS-275]
- Effective Inhibitory Concentration Range [1]: μM

Molecule: CN(C)c1ccc(C(=O)NCCCCCCCC(=O)NO)cc1 [DBCH, dimethylaminobenzamidylcaprylic hydroxamate]
- Effective Inhibitory Concentration Range [1]: nM-μM

Molecule: C=C[C@@H](O)[C@@H]1O[C@H]1/C=C/[C@@H]1O[C@H]1[C@@H](C)O [depudecin, Depudecin]
- Effective Inhibitory Concentration Range [1]: μM

Molecule: O=C(/C=C/c1cccc(C(=O)NO)c1)NO [m-carboxy cinnamic acid bis-hydroxamic acid]
- Effective Inhibitory Concentration Range [1]: nM-μM

Molecule: Oxamflatin
- Effective Inhibitory Concentration Range [1]: μM

Molecule: C/C=C1\NC(=O)[C@H]2CSSCC/C=C/[C@H](CC(=O)N[C@H](C(C)C)C(=O)N2)OC(=O)[C@H](C(C)C)NC1=O [depsipeptide, Depsipeptide]
- Effective Inhibitory Concentration Range [1]: nM-μM

Molecule: O=C(CCCCCCC(=O)Nc1cccnc1)NO [pyroxamide]
- Effective Inhibitory Concentration Range [1]: nM-μM

Molecule: CCCC(=O)O [butyrate, Butyric acid]
- levels of histone H4 acetylation [2]: can be reversed by butyrate treatment
- levels of histone H4 acetylation ([2]; listed as sodium butyrate): increased
- number of rhabdomeres per ommatidium at 6 days after eclosion ([3]; flies fed 100 mM butyrate): markedly improved
- level of degeneration (loss of rhabdomeres) ([3]; larvae reared on inhibitor-containing food): reduces the level of degeneration observed
- progressive photoreceptor neuron degeneration ([4]; 100 mM butyrate): still prevented; also recorded: arrested
- distribution of rhabdomeres by day 6 [4]: same distribution of rhadomeres by day 6 as 1-day-old flies
- neurodegenerative effect of Q48 (photographs of ommatidia) [4]: disrupts the neurodegenerative effect of Q48
- Effective Inhibitory Concentration Range [1]: mM

Molecule: O=C(CCCCCN1C(=O)c2cccc3cccc(c23)C1=O)NO [scriptaid, Scriptaid]
- Effective Inhibitory Concentration Range [1]: nM-μM

Molecule: O=C(O)CCCc1ccccc1 [phenylbutyrate, Phenylbutyrate]
- Effective Inhibitory Concentration Range [1]: mM

Molecule: O=C(CCCCCCC(=O)NO)NO [suberic bis-hydroxamic acid]
- Effective Inhibitory Concentration Range [1]: nM-μM

Molecule: O=C(CCCCCCC(=O)Nc1ccccc1)NO [SAHA, Suberoylanilide hydroxamic acid]
- progressive photoreceptor neuron degeneration ([4]; 2 μM SAHA): still prevented; also recorded: arrested
- distribution of rhabdomeres by day 6 [4]: same distribution of rhadomeres by day 6 as 1-day-old flies
- neurodegenerative effect of Q48 (photographs of ommatidia) [4]: disrupts the neurodegenerative effect of Q48
- deaths before termination of the experiments at 13 weeks ([5]; 0.67 g/l, R6/2 and wild-type): no R6/2 mice or wild-type mice died
- OUTCOME ([5]; 1.33 g/1, WT and R6/2, oral, 3 weeks): no adverse symptoms
- mice that died at around 6 weeks of age ([5]; 1.33 g/l from 30 days of age, R6/2): 2/13
- weight less than mice on the corresponding placebo ([5]; 1.33 g/l from 30 days of age, after 2 weeks, wild-type and R6/2, data not shown): more than 20%
- mice that died at around 6 weeks of age ([5]; 1.33 g/l from 30 days of age, wild-type): 2/12
- OUTCOME ([5]; DE to 2 g/1, R6/2, oral, 1 week): weight loss and one mouse (out of 4) died within one week
- OUTCOME ([5]; DE to 2.67 g/1+, WT, oral, 3 weeks): dramatic weight loss
- toxicity ([5]; administration initiated at 30 days, doses […]1.33 g/l, wild-type and R6/2): toxic
- Rotarod performance / motor impairment versus placebo ([6]; R6/2, 0.67 g/l SAHA in HOP-[…]-CD in drinking water): strong and consistent improvement; also recorded: dramatically improves Rotarod performance; also recorded: highly significant improvement; also recorded: dramatically improve the motor impairment
- Rotarod latency to fall ([6]; R6/2, 0.67 g/l SAHA, 8 weeks of age): 207 s
- Rotarod latency to fall ([6]; R6/2, 0.67 g/l SAHA, 10 weeks of age): 187 s
- Rotarod latency to fall ([6]; R6/2, 0.67 g/l SAHA, 12 weeks of age): 144 s
- delay in the decline in Rotarod performance ([6]; R6/2, 0.67 g/l SAHA, 12 weeks versus placebo at 8 weeks): delay by as much as one month
- Rotarod performance versus placebo ([6]; wild-type mice, 0.67 g/l SAHA): no significant difference
- failure of R6/2 mice to gain weight ([7]; R6/2, 0.67 g/l SAHA): did not prevent; also recorded: did not ameliorate
- weight deficit compared to appropriate placebo group ([7]; both wild-type and R6/2, 13 weeks, 0.67 g/l SAHA): ~18%
- weight gain compared to littermates on placebo ([7]; wild-type and R6/2, 0.67 g/l SAHA): failed to gain weight to the same extent; also recorded: failing to gain weight at the same rate as placebo-treated mice
- aggregate load versus vehicle control ([8]; 0.025 μM, 0.25 μM or 2.5 μM SAHA in HOP-[…]-CD, 3 and 4 weeks): no difference; also recorded: no effect
- toxicity to slice cultures ([8]; 25 μM and 250 μM): toxic
- effective concentration [1]: ~2.5 µM
